# Laboratory results as given in patent US8975086B2, “Method for treating or preventing bladder cancer using the DEPDC1 polypeptide” (OncoTherapy Science, Inc., priority 2008, dated 2015).
# Where a SMILES comes first, the peptide text is derived from it.
# Assays:
# A20 (TNFAIP3) = experiment: Quantitative RT-PCR of downstream gene A20 in UM-UC-3 cells; assay type: cell-based, human; settings: UM-UC-3 cells transfected with siRNA, compared with siEGFP
# Procedure: (§1) UM-UC-3 cells were transfected with siRNA against DEPDC1 (si-DEPDC1), ZNF224 (si-ZNF224-2) or EGFP (control siRNA). The target sequences of the synthetic oligo-duplex for siRNA against DEPDC1 (Sigma Aldrich) were as follows: si-DEPDC1,5′-CCAAAGUUCCGUAGUCUAA-3′(SEQ ID NO: 75), ZNF224 (si-ZNF224-2) or EGFP as described in “RNA interference assay” section.
# Total RNAs were extracted from each sample at 12 hours and 24 hours after the transfection, labeled with Cy5 (for si-DEPDC1- and si-ZNF224-2-transfected cells) or Cy3 (for si-EGFP-transfected cells), and subjected to cohybridization onto cDNA microarrayslides containing 36468 cDNA or ESTs as described previously (Takata R, et al., Clin Cancer Res 2005 11:2625-36). […] For other genes, the Cy5/Cy3 ratio was calculated using the raw data of each samples. […] Validation of candidate downstream genes of both DEPDC1 and ZNF224 was carried out with quantitative RT-PCR analysis using the SYBR green dye (Rhoche) and the same amplified RNAs from UM-UC-3 cells used for cDNA microarray experiments, with each gene-specific primer as follows;
# (§2) All experiments were performed in duplicate. The calculated quantity of the target gene for each sample was then divided by the average calculated quantity of beta 2-microglobulin (beta 2-MG) corresponding to each sample to give a relative expression of the target gene for each sample
# DLG1 = experiment: Quantitative RT-PCR of downstream gene DLG1 in UM-UC-3 cells; assay type: cell-based, human; settings: UM-UC-3 cells transfected with siRNA, compared with siEGFP
# Procedure: as §1
# Total RNAs were extracted from each sample at 12 hours and 24 hours after the transfection, labeled with Cy5 (for si-DEPDC1- and si-ZNF224-2-transfected cells) or Cy3 (for si-EGFP-transfected cells), and subjected to cohybridization onto cDNA microarrayslides containing 36468 cDNA or ESTs as described previously (Takata R, et al., Clin Cancer Res 2005 11:2625-36). After normalization of the data, it was excluded genes from further analysis when Cy5 and Cy3 dyes yielded signals intensities lower than the cut-off value. For other genes, the Cy5/Cy3 ratio was calculated using the raw data of each samples. […] Validation of candidate downstream genes of both DEPDC1 and ZNF224 was carried out with quantitative RT-PCR analysis using the SYBR green dye (Rhoche) and the same amplified RNAs from UM-UC-3 cells used for cDNA microarray experiments, with each gene-specific primer as follows;
# as §2
# ZNF224 transcript = experiment: Semiquantitative RT-PCR of knockdown effect of ZNF224 siRNA expression vectors in UM-UC-3 cells; assay type: cell-based, human; settings: compared with si-EGFP control
# Procedure: It has been previously established a vector-based RNA interference (RNAi) system, psiU6BX3.0 that was designed to express small interfering RNAs (siRNA) in mammalian cells (Shimokawa T, et al., Cancer Res 2003 63:6116-20). Plasmids designed to express siRNA to ZNF224 were prepared by cloning of double-stranded oligonucleotides into the BbsI site of psiU6BX vectors. The target sequences of the synthetic oligonucleotides for RNAi were as follows:
# si-ZNF224#2: 5′-CCGCAGGAACACATCAAGA-3′ (SEQ ID NO: 10) for the ZNF224-specific sequence. DNA sequences of all constructs were confirmed by DNA sequencing. […] To evaluate the knockdown effect of siRNAs by semi-quantitative RT-PCR with specific primers (see below), total RNAs were extracted from the transfected cells after 4-day incubation with neomycin (Geneticin, Invitrogen). […]
# 5′-[…]-3′ (SEQ ID NO: 13) and 5′-[…]-3′ (SEQ ID NO: 14) for GAPDH as a quantitative control. The transfected UM-UC-3 cells were cultured for 21 or 14 days in the presence of 1.0 mg/ml of neomycin, and the number of colonies were counted by Giemsa staining. Viability of UM-UC-3 cells was evaluated by 3-(4,5-dimethylthiazol-2-yl)-2,5-diphenyltetrazolium bromide (MTT) assay at 14 days after the treatment of neomycin with cell counting kit-8 according to manufacturer's recommendation (Wako, Osaka, Japan). […]
# UM-UC-3 cells [1] = experiment: MTT and colony-formation assays of UM-UC-3 cells transfected with siRNA expression vectors; assay type: cell-based, human; settings: UM-UC-3 cells transfected with siRNA expression vector, neomycin selection
# From the text: si-ZNF224#2: 5′-CCGCAGGAACACATCAAGA-3′ (SEQ ID NO: 10) for the ZNF224-specific sequence. DNA sequences of all constructs were confirmed by DNA sequencing. Eight-micrograms each of siRNA-expression vector were transfected into UM-UC-3 cells (1×10^6 cells per 10 cm-dish), respectively, using FuGENE6 transfection reagent (Roche) according to the supplier's recommendations. To evaluate the knockdown effect of siRNAs by semi-quantitative RT-PCR with specific primers (see below), total RNAs were extracted from the transfected cells after 4-day incubation with neomycin (Geneticin, Invitrogen). The specific primer sets for RT-PCR are as follows; 5′-[…]-3′ (SEQ ID NO: 11) and 5′-[…]-3′ (SEQ ID NO: 12) for ZNF224;
# 5′-[…]-3′ (SEQ ID NO: 13) and 5′-[…]-3′ (SEQ ID NO: 14) for GAPDH as a quantitative control. The transfected UM-UC-3 cells were cultured for 21 or 14 days in the presence of 1.0 mg/ml of neomycin, and the number of colonies were counted by Giemsa staining. Viability of UM-UC-3 cells was evaluated by 3-(4,5-dimethylthiazol-2-yl)-2,5-diphenyltetrazolium bromide (MTT) assay at 14 days after the treatment of neomycin with cell counting kit-8 according to manufacturer's recommendation (Wako, Osaka, Japan). Absorbance at 570 nm wavelength was measured with a Microplate Reader 550 (Bio-Rad, Hercules, Calif.). These experiments were performed in triplicate.
# NHDF-Ad cells = experiment: MTT assay of cell viability of normal human dermal fibroblasts treated with peptide; assay type: cell-based; settings: DEPDC1 and ZNF224 hardly detectable
# Procedure: (§3) UM-UC-3 and normal human dermal fibroblast-derived NHDF-Ad cell lines were incubated with the 11R peptides at the concentration of 0, 1, 2, or 3 micromol/L for 5 days. Each peptide was added at every 24 hours at the appropriate concentrations and the viability of cells was evaluated by MTT assay at every day after the treatment.
# (§4) To examine the effect of DEPDC1611-628 peptide on cell growth of UM-UC-3 and NHDF cells, the cells were incubated with the DEPDC1611-628 or scramble peptides at the concentration of 0, 1, 2, or 3 micro M for 5 days, respectively. Each peptide was added at every 24 hours at the appropriate concentrations and the viability of cells was evaluated by MTT assay every day. Absorbance at 570 nm wavelength was measured with a Microplate Reader 550 (Bio-Rad). These experiments were performed in triplicate.
# DEPDC1-ZNF224 complex = biological target: T1, DEPDC1-ZNF224 complex (Homo sapiens, UniProt Q9NZL3, H562R/M118V); experiment: Immunoprecipitation of exogenous DEPDC1-HA and ZNF224-FLAG complex in peptide-treated COS7 cells; assay type: cell-based; settings: for complex formation between exogenously expressed DEPDC1-HA and ZNF224-Flag (immunoprecipitation): six peptides added 6 hours after transfection, immunoprecipitation fifteen hours later
# T1 construct: expressed in transfected cells; host or cells: COS7 cells, transiently co-transfected (pCAGGS-type vectors)
# Procedure: To confirm the interaction between DEPDC1 and ZNF224 in bladder cancer cells and identify the ZNF224-binding region in DEPDC1, the immunoprecipitation experiment was carried out as follows. First, it was confirmed interaction between endogenous DEPDC1 and exogenous ZNF224 by immunoprecipitation experiments using anti-DEPDC1 polyclonal antibody for immunoprecipitation and anti-FLAGM2 antibody (Amersham) for immunoblotting. To further determine the ZNF224-binding region in DEPDC1, it was cloned six partial constructs of DEPDC1 (DEPDC11-147, DEPDC1141-300, DEPDC1177-597, DEPDC1300-669, DEPDC1587-740 and DEPDC1654-811) into appropriate sites of COOH-terminal HA-tagged pCAGGS vector. The nucleotide sequence of each clones were determined with an ABI Prism 3700 DNA sequencer (Applied Biosystems, Foster City, Calif.), using each primer. Cell extracts from Cos7 cell line, transfected with each of plasmids expressing one of these six partial segments of DEPDC1, were precleared by incubation at 4 degrees C. for 1 hour with 100 micro 1 of protein G-agarose beads in final volumes of 2 mL of immunoprecipitation buffer (0.5% NP40, 50 mmol/L Tris-HCl, 150 mmol/L NaCl) in the presence of proteinase inhibitor. After centrifugation at 1,000 rpm for 5 minutes at 4 degrees C., the supernatants were incubated at 4 degrees C. with anti-HA rat for 1 hours. After the beads were collected from each sample by centrifugation at 5,000 rpm for 2 minutes and washed six times with 1 mL of immunoprecipitation buffer, the washed beads were re-suspended in 50 uL of Laemmli sample buffer and boiled for 3 minutes before the proteins were separated on 10% SDS-PAGE gels. Immunoblot was done using anti-HA rat antibody and anti-FLAGM2 monoclonal antibody, respectively (Sigma-Aldrich Co., St. Louis, Mo.).
# To examine the effect of these polyarginine (11R)-linked peptides on inhibition of the DEPDC1-ZNF224 complex formation, they were co-transfected with DEPDC1 and ZNF224 constructs into COS7 cells. […] Immunoprecipitation were performed according to methods as described in “Identification of the ZNF224-binding regions in DEPDC1 protein” section.
# UM-UC-3 cells [2] = experiment: MTT assay of cell viability of UM-UC-3 bladder cancer cells treated with 11R peptides; assay type: cell-based, human; settings: UM-UC-3 cells; peptide 1, 2 or 3 micro M added every 24 hours for 5 days
# Procedure: as §3, §4
# T1 sequence (Q9NZL3 whole entry M118V/H562R, one chain of several): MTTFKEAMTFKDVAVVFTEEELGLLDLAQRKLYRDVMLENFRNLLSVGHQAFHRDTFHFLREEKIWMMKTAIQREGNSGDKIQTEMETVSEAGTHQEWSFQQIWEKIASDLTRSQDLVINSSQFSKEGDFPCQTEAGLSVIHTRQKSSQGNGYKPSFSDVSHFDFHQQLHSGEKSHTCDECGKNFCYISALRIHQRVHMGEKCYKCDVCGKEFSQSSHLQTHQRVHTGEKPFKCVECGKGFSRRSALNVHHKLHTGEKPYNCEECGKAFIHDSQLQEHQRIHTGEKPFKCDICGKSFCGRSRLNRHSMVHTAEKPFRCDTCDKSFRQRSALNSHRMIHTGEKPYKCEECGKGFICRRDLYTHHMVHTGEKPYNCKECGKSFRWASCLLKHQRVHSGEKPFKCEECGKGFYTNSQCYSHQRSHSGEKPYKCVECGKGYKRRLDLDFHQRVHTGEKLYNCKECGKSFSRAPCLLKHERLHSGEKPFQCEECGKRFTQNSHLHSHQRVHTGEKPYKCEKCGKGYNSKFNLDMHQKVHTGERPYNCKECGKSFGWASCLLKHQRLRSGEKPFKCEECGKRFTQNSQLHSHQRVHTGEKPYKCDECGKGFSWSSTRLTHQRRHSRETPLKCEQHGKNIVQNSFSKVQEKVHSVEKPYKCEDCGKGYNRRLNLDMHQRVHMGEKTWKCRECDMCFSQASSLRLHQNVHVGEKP
compound,measurement,setting,value
5′-CCAAAGUUCCGUAGUCUAA-3′ [si-DEPDC1],A20 transcript (quantitative RT-PCR),A20 (TNFAIP3),time-dependent increase
same,DLG1 transcript (quantitative RT-PCR),DLG1,time-dependent increase
5′-CCGATTTGGATGATGAAGA-3′ [si-ZNF224-1],amount of ZNF224 transcript (knockdown effect),ZNF224 transcript,significantly suppressed
same,growth of UM-UC-3 cell (MTT and colony-formation assays),UM-UC-3 cells [1],marked suppression growth
5′-CCGCAGGAACACATCAAGA-3′ [si-ZNF224-2],A20 transcript (quantitative RT-PCR),A20 (TNFAIP3),time-dependent increase
same,amount of ZNF224 transcript (knockdown effect),ZNF224 transcript,significantly suppressed
same,DLG1 transcript (quantitative RT-PCR),DLG1,time-dependent increase
same,growth of UM-UC-3 cell (MTT and colony-formation assays),UM-UC-3 cells [1],marked suppression growth
"CC[C@H](C)[C@H](NC(=O)[C@H](CCSC)NC(=O)[C@H](CCCNC(=N)N)NC(=O)[C@H](CCSC)NC(=O)[C@H](CC(C)C)NC(=O)[C@H](CC(C)C)NC(=O)[C@H](CCC(N)=O)NC(=O)[C@H](CC(C)C)NC(=O)[C@H](CCCCN)NC(=O)[C@H](CCCNC(=N)N)NC(=O)[C@H](CCCNC(=N)N)NC(=O)[C@H](CC(N)=O)NC(=O)[C@@H]1CCCN1C(=O)[C@@H]1CCCN1C(=O)CNC(=O)CNC(=O)CNC(=O)[C@H](CCCNC(=N)N)NC(=O)[C@H](CCCNC(=N)N)NC(=O)[C@H](CCCNC(=N)N)NC(=O)[C@H](CCCNC(=N)N)NC(=O)[C@H](CCCNC(=N)N)NC(=O)[C@H](CCCNC(=N)N)NC(=O)[C@H](CCCNC(=N)N)NC(=O)[C@H](CCCNC(=N)N)NC(=O)[C@H](CCCNC(=N)N)NC(=O)[C@H](CCCNC(=N)N)NC(=O)[C@@H](N)CCCNC(=N)N)C(=O)N[C@@H](CO)C(=O)N[C@@H](CCCNC(=N)N)C(=O)N[C@@H](CCSC)C(=O)N[C@@H](CO)C(=O)O [11R-DEP611-628, RRRRRRRRRRR-GGG-PPNRRKLQLLMRMISRMS] (H-RRRRRRRRRRRGGGPPNRRKLQLLMRMISRMS-OH)",cell viability measured by MTT assay,NHDF-Ad cells,no significant effect on cell viability
same,cell viability measured by MTT assay,NHDF-Ad cells; listed as DEPDC1611-628,no off-target effect
"RRRRRRRRRRR-GGG-AIDALQLCCLLLPPPNRR (RRRRRRRRRRRGGGAIDALQLCCLLLPPPNRR; An artificially synthesised dominant negative peptide) [11R-DEP598-615, 11R-linked DEPDC1 codons 598-615 peptide]",complex formation of DEPDC1-HA and ZNF224-FLAG (immunoprecipitation),"DEPDC1-ZNF224 complex; four peptides at 3 micro M added 6 hours after transfection, twenty-four hours later",moderate effect
same,complex formation between exogenously expressed DEPDC1-HA and ZNF224-Flag (immunoprecipitation),DEPDC1-ZNF224 complex,slight inhibition
same,cell viability measured by MTT assay,UM-UC-3 cells [2],moderate suppress in cell viability in dose-dependent manner
"RRRRRRRRRRR-GGG-ISRMSQNVDMPKLHDAMG (RRRRRRRRRRRGGGISRMSQNVDMPKLHDAMG; An artificially synthesised dominant negative peptide) [11R-DEP624-641, 11R-linked DEPDC1 codons 624-641 peptide]",complex formation between exogenously expressed DEPDC1-HA and ZNF224-Flag (immunoprecipitation),DEPDC1-ZNF224 complex,no inhibition
"RRRRRRRRRRR-GGG-LHDAMGTRSLMIHTFSRC (RRRRRRRRRRRGGGLHDAMGTRSLMIHTFSRC; An artificially synthesised dominant negative peptide) [11R-DEP636-653, 11R-linked DEPDC1 codons 636-653 peptide]",complex formation between exogenously expressed DEPDC1-HA and ZNF224-Flag (immunoprecipitation),DEPDC1-ZNF224 complex,no inhibition
"RRRRRRRRRRR-GGG-NGEKIKHEIINEDQENAI (RRRRRRRRRRRGGGNGEKIKHEIINEDQENAI; An artificially synthesised dominant negative peptide) [11R-DEP159-176, 11R-linked DEPDC1 codons 159-176 peptide]",complex formation between exogenously expressed DEPDC1-HA and ZNF224-Flag (immunoprecipitation),DEPDC1-ZNF224 complex,no inhibition
"RRRRRRRRRRR-GGG-PKRHGLHLSQENGEKIKHE (RRRRRRRRRRRGGGPKRHGLHLSQENGEKIKHE; An artificially synthesised dominant negative peptide) [11R-DEP148-166, 11R-linked DEPDC1 codons 148-166 peptide]",complex formation between exogenously expressed DEPDC1-HA and ZNF224-Flag (immunoprecipitation),DEPDC1-ZNF224 complex,no inhibition
